In patent publication US20190048016A1, “SUBSTITUTED BRIDGED UREA ANALOGS AS SIRTUIN MODULATORS” (GlaxoSmithKline Intellectual Property(No.2)Limited, priority 2014, published 2019):

Target: T1, SIRT1 (Homo sapiens, UniProt Q96EB6)
T1 sequence (Q96EB6 1-747): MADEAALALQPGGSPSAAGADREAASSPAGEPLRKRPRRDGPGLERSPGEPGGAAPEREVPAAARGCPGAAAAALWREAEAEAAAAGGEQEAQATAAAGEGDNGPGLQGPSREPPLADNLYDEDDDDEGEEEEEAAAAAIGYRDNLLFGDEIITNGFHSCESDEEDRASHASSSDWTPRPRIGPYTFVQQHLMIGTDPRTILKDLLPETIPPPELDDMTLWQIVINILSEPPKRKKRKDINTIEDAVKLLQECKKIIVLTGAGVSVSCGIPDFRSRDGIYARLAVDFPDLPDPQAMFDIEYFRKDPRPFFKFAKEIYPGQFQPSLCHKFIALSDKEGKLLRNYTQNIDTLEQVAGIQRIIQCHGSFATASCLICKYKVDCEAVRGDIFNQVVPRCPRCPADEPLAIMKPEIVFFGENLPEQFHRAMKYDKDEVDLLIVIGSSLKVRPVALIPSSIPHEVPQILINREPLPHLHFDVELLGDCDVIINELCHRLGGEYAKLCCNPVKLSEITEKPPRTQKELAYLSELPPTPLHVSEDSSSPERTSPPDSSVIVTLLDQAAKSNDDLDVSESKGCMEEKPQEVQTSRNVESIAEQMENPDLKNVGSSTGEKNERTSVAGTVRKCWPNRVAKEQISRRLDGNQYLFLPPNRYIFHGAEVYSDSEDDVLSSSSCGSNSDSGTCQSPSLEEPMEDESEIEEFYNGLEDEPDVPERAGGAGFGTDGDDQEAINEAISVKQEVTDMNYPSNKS
Test: Trp mass spectrometry assay of SIRT1 activation (deacetylation of Ac-R-H-K-K(Ac)-W-NH2 peptide, OAADPR formation)
Format: biochemical
Conditions: Trp peptide 0.5 μM, 120 μM βNAD+, 10 nM SIRT1, 25 min, 25° C.; for Emax: 25 min, read-out: TRP MAX RESP (percent maximum fold activation relative to control = 100%)
How it was run: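 10 nM His-tagged SIRT1 (E. coli expressed) with 0.5 μM Ac-RHKK(Ac)W-NH2 and 120 μM βNAD+, 25 min at 25° C, HEPES pH 7.5, […]; formic acid stop. OAADPR or deacetylated peptide measured by mass spectrometry; EC1.5 = concentration giving 150% activity versus DMSO control; maximum activation also reported.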

| SMILES | Emax [%] | TRP Activity (EC1.5, concentration of compound required to increase SIRT1 activity by 50% over control) |
| --- | --- | --- |
| O=C(Nc1cnc(OC[C@H](O)CO)nc1)N1c2nc(-c3cccc(C(F)(F)F)c3)c(Cl)cc2N2CCC[C@H]1C2 [Example 69, (9S)-3-chloro-N-(2-((R)-2,3-dihydroxypropoxy)pyrimidin-5-yl)-2-(3-(trifluoromethyl)phenyl)-8,9-dihydro-6H-5,9-methanopyrido[2,3-b][1,4]diazocine-10(7H)-carboxamide] | ≥ 150 | A (EC1.5<1 μM) |
| O=C(Nc1cc(OC[C@H](O)CO)ncn1)N1c2nc(-c3cccc(C(F)(F)F)c3)c(Cl)cc2N2CCC[C@H]1C2 [Example 70, (9S)-3-chloro-N-(6-((R)-2,3-dihydroxypropoxy)pyrimidin-4-yl)-2-(3-(trifluoromethyl)phenyl)-8,9-dihydro-6H-5,9-methanopyrido[2,3-b][1,4]diazocine-10(7H)-carboxamide] | ≥ 150 | B (EC1.5 1-25 μM) |
| O=C(NC1CC1)N1c2nc(-c3cccc(C(F)(F)F)c3)c(Cl)cc2N2CCC[C@H]1C2 [Example 71, (9S)-3-chloro-N-cyclopropyl-2-(3-(trifluoromethyl)phenyl)-8,9-dihydro-6H-5,9-methanopyrido[2,3-b][1,4]diazocine-10(7H)-carboxamide] | ≥ 150 | A (EC1.5<1 μM) |
| O=C(Nc1cnc(OC[C@@H](O)CO)nc1)N1c2nc(-c3cccc(C(F)(F)F)c3)c(Cl)cc2N2CCC[C@H]1C2 [Example 72, (9S)-3-chloro-N-(2-((S)-2,3-dihydroxypropoxy)pyrimidin-5-yl)-2-(3-(trifluoromethyl)phenyl)-8,9-dihydro-6H-5,9-methanopyrido[2,3-b][1,4]diazocine-10(7H)-carboxamide] | ≥ 150 | A (EC1.5<1 μM) |
| O=C(Nc1cnc(OC[C@H](O)CO)cn1)N1c2nc(-c3cccc(C(F)(F)F)c3)c(Cl)cc2N2CCC[C@H]1C2 [Example 73, (9S)-3-chloro-N-(5-((R)-2,3-dihydroxypropoxy)pyrazin-2-yl)-2-(3-(trifluoromethyl)phenyl)-8,9-dihydro-6H-5,9-methanopyrido[2,3-b][1,4]diazocine-10(7H)-carboxamide] | ≥ 150 | A (EC1.5<1 μM) |
| O=C(Nc1ccc(OC[C@@H](O)CO)cn1)N1c2nc(-c3cccc(C(F)(F)F)c3)c(Cl)cc2N2CCC[C@H]1C2 [Example 74, (9S)-3-chloro-N-(5-((S)-2,3-dihydroxypropoxy)pyridin-2-yl)-2-(3-(trifluoromethyl)phenyl)-8,9-dihydro-6H-5,9-methanopyrido[2,3-b][1,4]diazocine-10(7H)-carboxamide] | ≥ 150 | A (EC1.5<1 μM) |
| O=C(Nc1nccc(OC[C@@H](O)CO)n1)N1c2nc(-c3cccc(C(F)(F)F)c3)c(Cl)cc2N2CCC[C@H]1C2 [Example 75] | ≥ 150 | A (EC1.5<1 μM) |
| O=C(Nc1cncc(OC[C@H](O)CO)c1)N1c2nc(-c3cccc(C(F)(F)F)c3)c(Cl)cc2N2CCC[C@H]1C2 [Example 76, (9S)-3-chloro-N-(5-((R)-2,3-dihydroxypropoxy)pyridin-3-yl)-2-(3-(trifluoromethyl)phenyl)-8,9-dihydro-6H-5,9-methanopyrido[2,3-b][1,4]diazocine-10(7H)-carboxamide] | ≥ 150 | A (EC1.5<1 μM) |
| O=C(Nc1cnc(OC[C@@H](O)CO)cn1)N1c2nc(-c3cccc(C(F)(F)F)c3)c(Cl)cc2N2CCC[C@H]1C2 [Example 77, (9S)-3-chloro-N-(5-((S)-2,3-dihydroxypropoxy)pyrazin-2-yl)-2-(3-(trifluoromethyl)phenyl)-8,9-dihydro-6H-5,9-methanopyrido[2,3-b][1,4]diazocine-10(7H)-carboxamide] | ≥ 150 | A (EC1.5<1 μM) |
| O=C(Nc1nccc(OC[C@H](O)CO)n1)N1c2nc(-c3cccc(C(F)(F)F)c3)c(Cl)cc2N2CCC[C@H]1C2 [Example 78, (9S)-3-chloro-N-(4-((R)-2,3-dihydroxypropoxy)pyrimidin-2-yl)-2-(3-(trifluoromethyl)phenyl)-8,9-dihydro-6H-5,9-methanopyrido[2,3-b][1,4]diazocine-10(7H)-carboxamide] | ≥ 150 | A (EC1.5<1 μM) |
| O=C(Nc1ccc(OC[C@H](O)CO)nc1)N1c2nc(-c3cccc(C(F)(F)F)c3)c(Cl)cc2N2CCC[C@H]1C2 [Example 79, (9S)-3-chloro-N-(6-((R)-2,3-dihydroxypropoxy)pyridin-3-yl)-2-(3-(trifluoromethyl)phenyl)-8,9-dihydro-6H-5,9-methanopyrido[2,3-b][1,4]diazocine-10(7H)-carboxamide] | ≥ 150 | A (EC1.5<1 μM) |
| O=C(Nc1cncc(OC[C@@H](O)CO)c1)N1c2nc(-c3cccc(C(F)(F)F)c3)c(Cl)cc2N2CCC[C@H]1C2 [Example 80, (9S)-3-chloro-N-(5-((S)-2,3-dihydroxypropoxy)pyridin-3-yl)-2-(3-(trifluoromethyl)phenyl)-8,9-dihydro-6H-5,9-methanopyrido[2,3-b][1,4]diazocine-10(7H)-carboxamide] | ≥ 150 | A (EC1.5<1 μM) |
| O=C(Nc1ccnc(OC[C@@H](O)CO)n1)N1c2nc(-c3cccc(C(F)(F)F)c3)c(Cl)cc2N2CCC[C@H]1C2 [Example 81, (9S)-3-chloro-N-(2-((S)-2,3-dihydroxypropoxy)pyrimidin-4-yl)-2-(3-(trifluoromethyl)phenyl)-8,9-dihydro-6H-5,9-methanopyrido[2,3-b][1,4]diazocine-10(7H)-carboxamide] | ≥ 150 | A (EC1.5<1 μM) |
| O=C(Nc1cc(OC[C@H](O)CO)ccn1)N1c2nc(-c3cccc(C(F)(F)F)c3)c(Cl)cc2N2CCC[C@H]1C2 [Example 82, (9S)-3-chloro-N-(4-((R)-2,3-dihydroxypropoxy)pyridin-2-yl)-2-(3-(trifluoromethyl)phenyl)-8,9-dihydro-6H-5,9-methanopyrido[2,3-b][1,4]diazocine-10(7H)-carboxamide] | ≥ 150 | A (EC1.5<1 μM) |
| O=C(Nc1ccnc(OC[C@@H](O)CO)c1)N1c2nc(-c3cccc(C(F)(F)F)c3)c(Cl)cc2N2CCC[C@H]1C2 [Example 83, (9S)-3-chloro-N-(2-((S)-2,3-dihydroxypropoxy)pyridin-4-yl)-2-(3-(trifluoromethyl)phenyl)-8,9-dihydro-6H-5,9-methanopyrido[2,3-b][1,4]diazocine-10(7H)-carboxamide] | ≥ 150 | A (EC1.5<1 μM) |
| O=C(Nc1ccc(OC[C@@H](O)CO)nc1)N1c2nc(-c3cccc(C(F)(F)F)c3)c(Cl)cc2N2CCC[C@H]1C2 [Example 84, (9S)-3-chloro-N-(6-((S)-2,3-dihydroxypropoxy)pyridin-3-yl)-2-(3-(trifluoromethyl)phenyl)-8,9-dihydro-6H-5,9-methanopyrido[2,3-b][1,4]diazocine-10(7H)-carboxamide] | ≥ 150 | A (EC1.5<1 μM) |
| O=C(Nc1ccnc(OC[C@H](O)CO)c1)N1c2nc(-c3cccc(C(F)(F)F)c3)c(Cl)cc2N2CCC[C@H]1C2 [Example 85, (9S)-3-chloro-N-(2-((R)-2,3-dihydroxypropoxy)pyridin-4-yl)-2-(3-(trifluoromethyl)phenyl)-8,9-dihydro-6H-5,9-methanopyrido[2,3-b][1,4]diazocine-10(7H)-carboxamide] | ≥ 150 | A (EC1.5<1 μM) |
| O=C(Nc1cc(OC[C@@H](O)CO)ncn1)N1c2nc(-c3cccc(C(F)(F)F)c3)c(Cl)cc2N2CCC[C@H]1C2 [Example 86] | ≥ 150 | A (EC1.5<1 μM) |
